Experimental data from patent US10080757B2 (WISCONSIN ALUMNI RESEARCH FOUNDATION, priority 2016, dated 2018).

biological target: T1, recombinant MtbUGM (Mycobacterium tuberculosis, UniProt P9WIQ1); assay: biochemical; conditions: carboxylic acid replacements (R3)
T1 construct: made in house
T1 sequence (P9WIQ1 whole entry): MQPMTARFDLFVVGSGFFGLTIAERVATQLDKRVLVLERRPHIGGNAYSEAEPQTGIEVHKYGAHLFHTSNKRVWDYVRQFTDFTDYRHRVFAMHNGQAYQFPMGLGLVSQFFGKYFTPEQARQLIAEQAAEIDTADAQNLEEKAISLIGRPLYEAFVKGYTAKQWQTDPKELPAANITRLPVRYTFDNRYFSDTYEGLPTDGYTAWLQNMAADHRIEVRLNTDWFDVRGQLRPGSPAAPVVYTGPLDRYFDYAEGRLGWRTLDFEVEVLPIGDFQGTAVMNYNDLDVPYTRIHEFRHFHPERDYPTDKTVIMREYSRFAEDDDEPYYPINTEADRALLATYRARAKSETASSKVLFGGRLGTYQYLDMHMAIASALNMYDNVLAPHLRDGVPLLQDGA

| Structure (SMILES) | MtbUGM inhibition (in words) |
| --- | --- |
| COC(=O)CC1Sc2nnc(Cc3ccc(Br)cc3)n2N=C1c1ccc(Cl)cc1 (stereo not shown) [Compound 14, Methyl-2-(3-(4-bromobenzyl)-6-(4-chlorophenyl)-7H-[1,2,4]triazolo[3,4-b][1,3,4]thiadiazin-7-yl)acetate] | neither the ester nor amide variants effectively inhibit MtbUGM |
| C=CCNC(=O)CC1Sc2nnc(Cc3ccc(Br)cc3)n2N=C1c1ccc(Cl)cc1 (stereo not shown) [Compound 35, N-allyl-2-(3-(4-bromobenzyl)-6-(4-chlorophenyl)-7H-[1,2,4]triazolo[3,4-b][1,3,4]thiadiazin-7-yl)acetamide] | neither the ester nor amide variants effectively inhibit MtbUGM |
| C=CCNC(=O)CC1Sc2nnc(-c3cccs3)n2N=C1c1ccc(Cl)cc1 (stereo not shown) [Compound 34, N-allyl-2-(6-(4-chlorophenyl)-3-(thiophen-2-yl)-7H-[1,2,4]triazolo[3,4-b][1,3,4]thiadiazin-7-yl)acetamide] | neither the ester nor amide variants effectively inhibit MtbUGM |
| COC(=O)CC1Sc2nnc(-c3cccs3)n2N=C1c1ccc(Cl)cc1 (stereo not shown) [Compound 32, Methyl-2-(6-(4-chlorophenyl)-3-(thiophen-2-yl)-7H-[1,2,4]triazolo[3,4-b][1,3,4]thiadiazin-7-yl)acetate] | neither the ester nor amide variants effectively inhibit MtbUGM |
